The results in this text go back to patent US20070072815A1, “Methods and kits to increase the efficiency of oligonucleotide-directed nucleic acid sequence alteration” (priority 2004, published 2007).

Test [1] has as its system mutant eGFP gene in DLD-1-1 cells. Briefly: eGFP gene correction (oligonucleotide-directed sequence alteration) in DLD-1-1 cells, FACS readout. The format is cell-based. As to conditions: for effect on correction when added after electroporation: recovery period, AraC 2-48 hrs, aphidicolin 6 μM at 2, 6 and 24 hrs. The method, then: Cell line and culture conditions: DLD-1 cells are obtained from ATCC (American Type Cell Culture, Manassas, Va.). DLD-1 integrated clone 1 (DLD-1-1) is obtained by integration of the vector pEGFP-N3 containing a single point mutation (TAG) in the eGFP gene, as described in copending U.S. patent application Ser. No. 10/986,418, filed Nov. 10, 2004 (“Mammalian Cell Lines for Detecting, Monitoring, and Optimizing Oligonucleotide-Mediated Chromosomal Sequence Alteration”). Cells are grown in RPMI 1640 medium with 2 mM glutamine, 4.5 g/L glucose, 10 mM HEPES, 1 mM sodium pyruvate and supplemented with 10% FBS. Cells are maintained at 5% CO2, 37° C. and under selection in 200 μg/ml G418 (Gibco, Invitrogen Co., Carlsbad, Calif.).
eGFP gene correction: Cells grown in complete medium supplemented with 10% FBS are trypsinized and harvested by centrifugation. The cell pellet is resuspended in serum-free medium at a density of 1×10^6 cells/100 μl and transferred to a 4 mm gap cuvette (Fisher Scientific, Pittsburgh, Pa.). The oligonucleotide is then added at a concentration of 4 μM and the cells are electroporated (LV, 250V, 13 msec, 2 pulses, 1 second interval) using a BTX ECM830 apparatus (BTX, Holliston, Mass.). The cells are then transferred to a 60 mm dish containing fresh medium supplemented with 10% FBS and incubated for 48 hrs at 37° C. before harvesting for FACS analysis.
The percentage of converted cells in a whole population is then calculated by CellQuest™ (Becton Dickinson) and GFP/PI programs. The correction efficiency is determined by dividing the number of eGFP positive cells by the number of cells analyzed in each experiment (usually 50,000 cells). Each clone is tested three times to determine the standard deviation of the correction efficiency, with standard deviation calculated using Microsoft Excel.
The experimental strategy involves the introduction of oligonucleotides into DLD-1-clone 1 cells by electroporation followed by phenotypic readout of the corrected eGFP gene, 48 hours later. The correcting oligonucleotide (EGFP3S/72NT) is 72 bases in length (72-mer), complementary to the non-transcribed strand of the mutant eGFP gene but designed to create a single mismatch in the third base of codon 67 (see FIG. 1A). It directs conversion of a TAG→TAC codon which enables phenotypic expression of eGFP, which can be detected by FACS. FIG. 1B outlines the sequence of the target gene, the 72-mer and a nonspecific 74-mer used as a control.
Oligonucleotide-Directed Sequence Alteration: The resulting synchronized populations of cells, and asynchronous controls, are grown in complete medium supplemented with 10% FBS and trypsinzed and harvested by centrifugation at 1500 rpm for 5 minutes. The cell pellet is resuspended in fresh serum-free medium at a density of 2×10^6 cells/100 μl. The entire cell suspension is mixed with 20 μg of EGFP/72NT and transferred into a 4 mm gap cuvette (Fisher Scientific, Pittsburgh, Pa., USA) followed by electroporation with two 250V pulses, each 13 ms in duration, with one second between pulses, unipolar.
Cells are incubated at room temperature for 30 min. […] Frequency of converted cells are calculated by CellQuest™ and GFP/PI programs.
Double Thymidine Block: Cells are synchronized in G1 or at the G1/S border by a double thymidine block. Twenty-four hours prior to the addition of any agent (HU, etc.), cells are plated at a density of 0.5×10^6 cells per 100 mm dish, followed by incubation in 2 mM thymidine (Sigma) for 16 hrs, washed and released in fresh medium for 10 hrs, then incubated in 2 mM thymidine for an additional 15 hrs.
FACS is then used to analyze 50,000 cells from each population to determine the percentage of cells expressing functional eGFP, as described in Example 1.

The subject of test [2] is DLD-1-1 cells. Briefly: Cell cycle analysis (DNA content by FACS), cells in S phase. The format is cell-based. The method, then:
(§1) For cell cycle analysis, 1×10^6 cells are plated 24 hrs before the treatment with drugs and after 24 hrs of treatment, cells are trypsinized, resuspended in 300 μl cold PBS and fixed by adding 700 μl cold ethanol. Cells are then resuspended in 1 ml of PBS containing 500 µg/ml RNaseA and […] propidium iodide and analyzed for DNA content.
The effect of cell cycle on the efficiency of ODSA is assessed by synchronizing a population of DLD-1-1 cells with mimosine, which arrests cells in early S phase, and serum starvation. Cells are seeded at a density of 0.8×10^6 per 100 mm dish, attached for 20 hours and then cultured in RMPI-1640 medium containing 0.2% fetal bovine serum (FBS). These cells are grown for 48 hours followed by treatment with 0.1 mM mimosine (Sigma, St. Louis, Mo., USA) for 20 hours. Cell are washed twice with PBS and released at various times into fresh medium complemented with 10% FBS before electroporation. Cells are rinsed once with PBS, trypsinized and harvested by centrifugation and resuspended in PBS containing 10 μg/ml propidium iodide, 0.03% Triton-100 and 1 mg/ml RNase. Cells are incubated at room temperature for 1 hour before the measurement of DNA content by FACSCalibur™ flow cytometer. The percentage of cells at various stages of the cell cycle is determined by ModFit L™ software (Verity Software House, Inc., Topsham, Me., USA).
(§2) The resulting cells are then either analyzed by FACS, or the percentage of cells in S phase is determined by BrdU incorporation. FIG. 8 presents the results of both sets of experiments.
A general note: A flow cytometer gives signals particle by particle.

The subject of test [3] is DLD-1-1 cells. Briefly: BrdU incorporation (actively replicating forks). The format is cell-based. As to conditions: for BrdU uptake (cells actively incorporating DNA bases): 24 hour treatment, 500 μM ddC, ddI or AraC (FIG. 17B). On the procedure: as §1, §2
As stated above, the lack of stimulation observed in cells treated with AraC could be explained by the reduced number of cells passing through S phase or the absence of actively replicating forks. If true, we might predict that a rise in the gene repair frequency would appear if the cells are released from the AraC block and replication forks are allowed to restart prior to the electroporation of the oligonucleotide. We test this prediction by treating the cells with AraC for 24 hrs and then releasing them by washing out the drug at specific times. We measure the level of BrdU incorporation at the time of electroporation and evaluate the frequency of correction 48 hrs later.
A general note: Dividing cells build labelled thymidine or BrdU into new DNA.

Test [4] has as its system α-galactosidase A (GLA) activity in Fabry's cell line DMN-1. Briefly: GLA activity in Fabry's cells after ODSA. The class given is cell-based, human. From the text: Cell line DMN-1, a human fibroblast cell line derived from a human patient with Fabry's disease, is obtained from the National Institutes of Health (NIH). These cells are used to measure the efficiency of correction of a mutant allele of α-galactosidase A (GLA) using methods of the present invention. The specific disease-causing mutation in the Fabry's cell line used herein is A143P, caused by a G→C mutation in the gene. See Branton et al., Medicine (Baltimore) (2002) 81(2): 122-38.
All four oligonucleotides are used to effect ODSA substantially as described in Example 1, with the exception that cells are transfected with oligonucleotides, rather than electroporated. Oligos are added at 5 μg, 10 μg or 30 μg per reaction. After ODSA is performed, cells are cultured and assayed for GLA activity according to the method of Brady, as described in Medin et al., Proc. Natl. Acad. Sci. (USA) (1996) 93:7917-22, the disclosure of which is incorporated herein by reference in its entirety. The GLA activity is used as a measure of gene correction by comparing the activities in treated versus untreated cultures. The correction efficiency is subsequently confirmed by sequencing of the locus of mutation in a number of treated cells.
[…] Unlike the experiments involving correction of eGFP in DLD-1-1 cells described in Example 1, however, certain of the agents (VPA, caffeine, TSA) in the experiments in this example are not added before transfection, but are instead added only after transfection, during the recovery period.
The means of introducing oligonucleotide into the target cells also differs from previous examples, with transfection in the presence of the transfection enhancing agent FuGENE™ 6 (FG) (Roche Diagnostics Corp., Indianapolis, Ind., USA) being used rather than electroporation. Each transfection reaction includes 100 μl of target cells and 12 μl of FG unless otherwise indicated, despite the fact that FG is not explicitly listed for each datapoint in the relevant figures. Otherwise the procedures used in the DLD-1-1 experiments and the Fabry's experiments are similar.
The results of a further series of experiments are shown at FIG. 15D, where the data are presented as GLA activity as nanomolar (nM) concentration of the product of the GLA assay generated per hour per unit protein concentration (as are the data in FIGS. D and E).

Setting [5] is: 24 hour treatment, 500 μM ddC, ddI or AraC (FIG. 17A).
[6] abbreviates: 2-5 μM VPA in the recovery phase.
The mark [7] stands for this setting: serum starvation + mimosine, 8 hours after release.

“Also recorded” adds a separate entry of the source. Some results are limits rather than exact numbers.

In the case of `C[C@@]1(CO)[C@H](O)CC[C@@]2(C)[C@H]1CC[C@H]1C[C@@H]3C[C@@]12CC[C@]3(O)CO` [Aphidicolin, aphidicolin], the “effect on correction when added after electroporation” value in test [1] is reported as “low level of correction”.

On to `Nc1ccn([C@@H]2O[C@H](CO)[C@@H](O)[C@@H]2O)c(=O)n1` [AraC, 1-β-D-arabinofuransylcytosine], for which, in test [1] (AraC 5 μM to 250 μM, 24 hrs before electroporation), the “effect on correction levels” value is “no enhancement in correction levels; also recorded: significantly insignificant effect”. In test [1] (AraC 24 hrs, then washed out before electroporation), the “time post release at which gene repair activity reaches maximal level” value is 8 h. In addition, the “effect on correction when added after electroporation” value in test [1] is “correction levels drop substantially”. Besides, the “cells in S phase” value with DLD-1-1 cells [2] (setting [5]) was found to be 26%. Further, the “reduction in S phase cells” value in the test with DLD-1-1 cells [2] (AraC at 20 μM and 250 μM) came out at 9%. Also, in the test with DLD-1-1 cells [3], the “BrdU uptake (cells actively incorporating DNA bases)” value is given as “essentially zero”. For the same compound, in the test on DLD-1-1 cells [3] (AraC 24 hrs, then washed out), the “time after release at which elevation in BrdU incorporation is observed” value was no more than 2 h.

`CC[C@@]1(O)C(=O)OCc2c1cc1n(c2=O)Cc2cc3ccccc3nc2-1` [CPT, camptothecin]: the “effect on correction efficiency” value in test [1] (CPT pretreatment at 30-100 nM) was “triples correction efficiency”. Besides, the “GLA activity versus no treatment control” value in test [4] (7.5 nM CPT during recovery) was “approximately six-fold”. Moreover, in test [4] (7.5 nM CPT during recovery, 49T/gg), the GLA activity is recorded as 26.84 nM product per hour per unit p. Moreover, the “effect on GLA activity” value in test [4] (CPT 7.5 nM (FIG. 15D summary)) is listed as “more than doubles GLA activity”.

For the compound `CC(/C=C/C(=O)NO)=C\[C@@H](C)C(=O)c1ccc(N(C)C)cc1` [TSA, trichostatin A], the “effect on ddC-enhanced GLA activity” value in test [4] (synchronized cells, 500 μM ddC, 4 mM caffeine or 100 ng/ml TSA during recovery period) was “eliminate the ability of 500 μM ddC to enhance GLA activity”.

For the compound `COc1cc([C@@H]2c3cc4c(cc3[C@@H](O[C@@H]3O[C@@H]5CO[C@@H](C)O[C@H]5[C@H](O)[C@H]3O)[C@H]3COC(=O)[C@H]23)OCO4)cc(OC)c1O` [VP16, 4′-demethylepipodophyllotoxin-9-(4,6-O-ethylidene-beta-D-glucopyranoside)], the “cells in S-phase” value with DLD-1-1 cells [2] (24 hours, 1 mM HU or 3 μM VP16, FACS analysis) is on record as 56%. For the same compound, in the test on DLD-1-1 cells [3] (24 hours, 1 mM HU or 3 μM VP16), the “percentage of cells in S phase by BrdU” value was found to be 56%.

On to `CCCC(CCC)C(=O)O` [VPA, valproic acid], for which the “GLA activity versus untreated cells” value in test [4] (5 μM VPA during recovery period) is given as “over 20 fold”. Further, the GLA activity in test [4] (5 μM VPA during recovery period after transfection with 49T/gg) is listed as 98.71 nM product per hour per unit p. In addition, in test [4] (setting [6]), the “GLA activity over untreated cells” value was 25 fold and the “GLA activity versus cells treated identically without VPA” value is listed as “more than eight-fold”.

Consider `O=c1[nH]cnc2c1ncn2[C@H]1CC[C@@H](CO)O1` [ddI, dideoxyinosine], for which, in test [1] (various dosages of ddI), the “effect on gene correction” value is “no significant increase in gene correction; also recorded: statistically insignificant effect”. Besides, in the test on DLD-1-1 cells [2] (setting [5]), the “cells in S phase” value is “does not show an increase in the number of cells in S phase”. Moreover, in the test on DLD-1-1 cells [3], the “BrdU uptake (cells actively incorporating DNA bases)” value is given as “no difference from non-treated cells”.

For the compound `NC(Cn1ccc(=O)c(O)c1)C(=O)O` (stereo not drawn) [mimosine], the “increase of correction efficiency versus asynchronous cells” value in test [1] (setting [7]) amounted to 2.5 fold. The “cells in S phase” value in the test with DLD-1-1 cells [2] (serum starvation + 0.1 mM mimosine, 8 hours after release) is 86%. Further, the “increase of proportion of cells in S phase versus asynchronous cells” value with DLD-1-1 cells [2] (setting [7]) stood at 2.5 fold.

Consider `COc1cc(C=O)ccc1O` [vanillin], for which the “effect on correction efficiency” value in test [1] (1 mM vanillin, before or after electroporation, with or without ddC) is “no effect on correction efficiency; also recorded: does not inhibit gene repair activity”. In test [1] (inhibitor added with ddC before electroporation (FIG. 20)), the “effect on ddC-stimulated gene repair” value is reported as “statistically unchanged”.
